Experimental data: PubChem BioAssay AID2060883 (Molecular Pharmacology Branch, DTP, NCI, 2025)

Tested on: 843782-103-R-J1-PDC complex spheroid viability
Assay: Anticancer human tumor 843782-103-R-J1-PDC patient-derived lung adenocarcinoma cell line growth inhibition [RAS]
Details: for viability, T/C: stronger effect = lower value; for IC50: curve of first compound
Method in brief: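 Tumour cells grown as complex spheroids with HUVEC endothelial cells and mesenchymal stem cells, treated with RAS pathway inhibitor combinations. Each agent spans half-log steps from near clinical Cmax, or 10 microM where Cmax is unknown.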
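Also: viability read after seven days of compound exposure.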

CC(Nc1ccc2c(c1)OCCn1cc(N3C(=O)OCC3C(F)F)nc1-2)C(N)=O (centres undefined)
viability, T/C (compound 0.0316 µM): 95.9% [middle of 4 runs] | viability, T/C (compound 0.316 µM): 50.3% [middle of 4 runs] | viability, T/C (compound 1 µM): 38.3% [middle of 4 runs] | viability, T/C (compound 3.16 µM): 26.1% [middle of 4 runs] | viability, T/C (compound 10 µM): 16.3% [middle of 4 runs]

CC(C)n1nc(-c2ccc3oc(N)nc3c2)c2c(N)ncnc21 + CCn1c(-c2cccnc2C(C)OC)c2c3cc(ccc31)N1CCOC(CC(NC(=O)C(C(C)C)N(C)C(=O)C3(F)CCN(C(=O)C#CC(C)(C)N(C)C)CC3)C(=O)N3CCCC(N3)C(=O)OCC(C)(C)C2)C1
IC50 (second compound 0.000949 µM): 6.59 nM | IC50 (second compound 0.003 µM): 5.28 nM | IC50 (second compound 0.00949 µM): 5.87 nM | IC50 (second compound 0.03 µM): 5.1 nM | IC50 (second compound 0.0949 µM): 7.35 nM | IC50 (second compound 0.3 µM): 3.57 nM | viability, T/C (second compound 0.000949 µM, first compound 0.000316 µM): 84.1% | viability, T/C (second compound 0.000949 µM, first compound 0.001 µM): 66.4% | viability, T/C (second compound 0.000949 µM, first compound 0.00316 µM): 55.4% | viability, T/C (second compound 0.000949 µM, first compound 0.01 µM): 52.8% | viability, T/C (second compound 0.000949 µM, first compound 0.0316 µM): 28.5% | viability, T/C (second compound 0.000949 µM, first compound 0.1 µM): 14.9% | viability, T/C (second compound 0.003 µM, first compound 0.000316 µM): 78.1% | viability, T/C (second compound 0.003 µM, first compound 0.001 µM): 72.7% | viability, T/C (second compound 0.003 µM, first compound 0.00316 µM): 52.9% | viability, T/C (second compound 0.003 µM, first compound 0.01 µM): 44.4% | viability, T/C (second compound 0.003 µM, first compound 0.0316 µM): 27.1% | viability, T/C (second compound 0.003 µM, first compound 0.1 µM): 18.3% | viability, T/C (second compound 0.00949 µM, first compound 0.000316 µM): 72.7% | viability, T/C (second compound 0.00949 µM, first compound 0.001 µM): 62.8% | viability, T/C (second compound 0.00949 µM, first compound 0.00316 µM): 57.3% | viability, T/C (second compound 0.00949 µM, first compound 0.01 µM): 46.1% | viability, T/C (second compound 0.00949 µM, first compound 0.0316 µM): 28% | viability, T/C (second compound 0.00949 µM, first compound 0.1 µM): 15.5% | viability, T/C (second compound 0.03 µM, first compound 0.000316 µM): 70.4% | viability, T/C (second compound 0.03 µM, first compound 0.001 µM): 69.9% | viability, T/C (second compound 0.03 µM, first compound 0.00316 µM): 53.6% | viability, T/C (second compound 0.03 µM, first compound 0.01 µM): 42.7% | viability, T/C (second compound 0.03 µM, first compound 0.0316 µM): 25.3% | viability, T/C (second compound 0.03 µM, first compound 0.1 µM): 17.1% | viability, T/C (second compound 0.0949 µM, first compound 0.000316 µM): 73% | viability, T/C (second compound 0.0949 µM, first compound 0.001 µM): 64% | viability, T/C (second compound 0.0949 µM, first compound 0.00316 µM): 70.5% | viability, T/C (second compound 0.0949 µM, first compound 0.01 µM): 42.1% | viability, T/C (second compound 0.0949 µM, first compound 0.0316 µM): 25.6% | viability, T/C (second compound 0.0949 µM, first compound 0.1 µM): 15.8% | viability, T/C (second compound 0.3 µM, first compound 0.000316 µM): 71.3% | viability, T/C (second compound 0.3 µM, first compound 0.001 µM): 66.7% | viability, T/C (second compound 0.3 µM, first compound 0.00316 µM): 47.3% | viability, T/C (second compound 0.3 µM, first compound 0.01 µM): 40.3% | viability, T/C (second compound 0.3 µM, first compound 0.0316 µM): 23.7% | viability, T/C (second compound 0.3 µM, first compound 0.1 µM): 12.6%

CCc1c2c(nc3ccc(O)cc13)-c1cc3c(c(=O)n1C2)COC(=O)[C@]3(O)CC + CCn1c(-c2cccnc2C(C)OC)c2c3cc(ccc31)N1CCOC(CC(NC(=O)C(C(C)C)N(C)C(=O)C3(F)CCN(C(=O)C#CC(C)(C)N(C)C)CC3)C(=O)N3CCCC(N3)C(=O)OCC(C)(C)C2)C1
IC50 (second compound 0.000949 µM): 1.49 nM | IC50 (second compound 0.003 µM): 1.45 nM | IC50 (second compound 0.00949 µM): 1.26 nM | IC50 (second compound 0.03 µM): 1.27 nM | IC50 (second compound 0.0949 µM): 1.46 nM | IC50 (second compound 0.3 µM): 1.23 nM | viability, T/C (second compound 0.000949 µM, first compound 0.000949 µM): 67.3% | viability, T/C (second compound 0.000949 µM, first compound 0.003 µM): 23.5% | viability, T/C (second compound 0.000949 µM, first compound 0.00949 µM): 6.26% | viability, T/C (second compound 0.000949 µM, first compound 0.03 µM): 2.82% | viability, T/C (second compound 0.000949 µM, first compound 0.0949 µM): 1.64% | viability, T/C (second compound 0.000949 µM, first compound 0.3 µM): 1.49% | viability, T/C (second compound 0.003 µM, first compound 0.000949 µM): 63.3% | viability, T/C (second compound 0.003 µM, first compound 0.003 µM): 27% | viability, T/C (second compound 0.003 µM, first compound 0.00949 µM): 5.6% | viability, T/C (second compound 0.003 µM, first compound 0.03 µM): 2.52% | viability, T/C (second compound 0.003 µM, first compound 0.0949 µM): 1.9% | viability, T/C (second compound 0.003 µM, first compound 0.3 µM): 1.58% | viability, T/C (second compound 0.00949 µM, first compound 0.000949 µM): 59.1% | viability, T/C (second compound 0.00949 µM, first compound 0.003 µM): 22.9% | viability, T/C (second compound 0.00949 µM, first compound 0.00949 µM): 6.03% | viability, T/C (second compound 0.00949 µM, first compound 0.03 µM): 2.26% | viability, T/C (second compound 0.00949 µM, first compound 0.0949 µM): 1.84% | viability, T/C (second compound 0.00949 µM, first compound 0.3 µM): 2.05% | viability, T/C (second compound 0.03 µM, first compound 0.000949 µM): 59.7% | viability, T/C (second compound 0.03 µM, first compound 0.003 µM): 21.9% | viability, T/C (second compound 0.03 µM, first compound 0.00949 µM): 3.99% | viability, T/C (second compound 0.03 µM, first compound 0.03 µM): 2.11% | viability, T/C (second compound 0.03 µM, first compound 0.0949 µM): 1.92% | viability, T/C (second compound 0.03 µM, first compound 0.3 µM): 1.55% | viability, T/C (second compound 0.0949 µM, first compound 0.000949 µM): 68.9% | viability, T/C (second compound 0.0949 µM, first compound 0.003 µM): 18.6% | viability, T/C (second compound 0.0949 µM, first compound 0.00949 µM): 3.32% | viability, T/C (second compound 0.0949 µM, first compound 0.03 µM): 1.45% | viability, T/C (second compound 0.0949 µM, first compound 0.0949 µM): 1.1% | viability, T/C (second compound 0.0949 µM, first compound 0.3 µM): 1.93% | viability, T/C (second compound 0.3 µM, first compound 0.000949 µM): 59.3% | viability, T/C (second compound 0.3 µM, first compound 0.003 µM): 17.8% | viability, T/C (second compound 0.3 µM, first compound 0.00949 µM): 3.68% | viability, T/C (second compound 0.3 µM, first compound 0.03 µM): 2.01% | viability, T/C (second compound 0.3 µM, first compound 0.0949 µM): 1.36% | viability, T/C (second compound 0.3 µM, first compound 0.3 µM): 1.25%
